The numbers were not newly measured in US6703034B2, “Neem oil microemulsion without cosurfactants or alcohols and a process to form the same” (University of Florida, priority 2000, dated 2004), which cites them from elsewhere.

For one series, the system named is Insects. The conditions noted are these: treated during larval and pupal stages.
In a further series the test system is certain insects. The conditions noted are these: quantities as low as.

In the case of `C/C=C(\C)C(=O)O[C@H]1C[C@@H](OC(C)=O)[C@@]2(C(=O)OC)CO[C@H]3[C@@H](O)[C@@](C)([C@]45O[C@@]4(C)[C@H]4C[C@@H]5O[C@@H]5OC=C[C@@]54O)[C@H]4[C@]1(CO[C@]4(O)C(=O)OC)[C@@H]32` [azadirachtin], the “time to death of treated insects” value with Insects is 3 to 14 days. Moreover, in the series with certain insects, the “quantity at which potent (repels certain insects)” value is 1 ppm.
